# Laboratory results reported in patent US7625948B2, “Ester compound and medicinal use thereof” (Japan Tobacco Inc., priority 2002, dated 2009).
# pIC50: −log10 of the molar value.
# Target: T1, Microsomal triglyceride transfer protein (MTP) from bovine liver (Bos taurus, UniProt P55156)
# T1 construct: from tissue; host or cells: bovine liver
# T1 sequence (P55156 12-887): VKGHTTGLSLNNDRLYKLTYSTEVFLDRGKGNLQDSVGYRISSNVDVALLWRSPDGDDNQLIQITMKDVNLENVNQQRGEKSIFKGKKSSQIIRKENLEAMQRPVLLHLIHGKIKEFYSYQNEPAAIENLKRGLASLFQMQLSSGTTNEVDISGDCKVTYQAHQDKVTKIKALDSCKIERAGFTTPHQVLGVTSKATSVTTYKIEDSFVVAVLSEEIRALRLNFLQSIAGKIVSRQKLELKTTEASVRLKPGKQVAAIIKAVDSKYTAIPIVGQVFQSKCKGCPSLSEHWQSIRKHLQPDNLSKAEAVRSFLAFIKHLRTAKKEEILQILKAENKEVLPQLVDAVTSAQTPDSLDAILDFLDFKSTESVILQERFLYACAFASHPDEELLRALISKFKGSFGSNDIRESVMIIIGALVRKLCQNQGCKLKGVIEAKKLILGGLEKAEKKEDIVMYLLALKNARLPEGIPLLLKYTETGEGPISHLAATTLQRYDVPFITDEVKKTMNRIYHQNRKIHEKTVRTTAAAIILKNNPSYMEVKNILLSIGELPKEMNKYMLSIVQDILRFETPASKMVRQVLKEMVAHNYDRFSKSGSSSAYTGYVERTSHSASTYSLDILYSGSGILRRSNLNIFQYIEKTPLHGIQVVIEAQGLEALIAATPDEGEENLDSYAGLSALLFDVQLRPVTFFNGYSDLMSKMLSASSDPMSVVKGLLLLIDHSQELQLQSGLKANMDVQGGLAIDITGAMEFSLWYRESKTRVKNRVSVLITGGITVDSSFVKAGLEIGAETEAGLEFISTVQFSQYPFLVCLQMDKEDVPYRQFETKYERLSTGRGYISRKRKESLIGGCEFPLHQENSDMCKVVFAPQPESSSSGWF
# T1 sequence (P05307 21-510 partner): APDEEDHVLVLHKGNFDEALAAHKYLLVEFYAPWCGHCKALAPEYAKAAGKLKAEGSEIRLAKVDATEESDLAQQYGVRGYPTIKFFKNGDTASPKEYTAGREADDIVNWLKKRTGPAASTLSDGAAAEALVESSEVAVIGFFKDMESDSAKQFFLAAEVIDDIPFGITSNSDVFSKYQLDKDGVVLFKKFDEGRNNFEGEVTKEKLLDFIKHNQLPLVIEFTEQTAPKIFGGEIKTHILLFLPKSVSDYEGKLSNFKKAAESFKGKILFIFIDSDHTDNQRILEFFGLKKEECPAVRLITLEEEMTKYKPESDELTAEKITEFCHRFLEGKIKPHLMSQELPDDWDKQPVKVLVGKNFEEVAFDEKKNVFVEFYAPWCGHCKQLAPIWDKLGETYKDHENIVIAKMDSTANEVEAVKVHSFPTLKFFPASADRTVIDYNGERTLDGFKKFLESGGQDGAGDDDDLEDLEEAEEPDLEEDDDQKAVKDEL
# Assay: Test Example 1: inhibition of interliposomal triglyceride (TG) transfer activity by MTP (also used for metabolites in Test Example 8)
# Assay type: biochemical
# Conditions: MTP-mediated 14C-triolein transfer between liposomes, 37° C., one hour; read-out: Test Example 1 MTP inhibition IC50
# In short: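 Partially purified bovine liver MTP (DEAE chromatography) incubated 1 h at 37 °C, pH 7.4, with ^14C-triolein-labelled donor SUVs and unlabelled acceptor SUVs plus compound in DMSO. Acceptor radioactivity, blank-corrected, gave % inhibition versus DMSO; IC50 derived. Metabolites tested likewise.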
row,SMILES,pIC50
1,"CCNC(=O)C(COC(=O)Cc1ccc(NC(=O)c2ccccc2-c2ccc(C(F)(F)F)cc2)cc1)(C(=O)NCC)c1ccccc1 [Example 1, 4-[(4′-Trifluoromethylbiphenyl-2-carbonyl)amino]phenyl-acetic acid 2,2-bisethylcarbamoyl-2-phenylethyl ester]",9.22
2,"CCOC(=O)C(COC(=O)Cc1ccc(OC(=O)c2ccccc2-c2ccc(C(F)(F)F)cc2)cc1)(C(=O)OCC)c1ccccc1 [Example 1-2, 2-Phenyl-2-{2-[4-(4′-trifluoromethylbiphenyl-2-carbonyloxy)phenyl]acetoxymethyl}malonic acid diethyl ester]",7.38
3,"CCNC(=O)C(COC(=O)Cc1ccc(NC(=O)c2ccccc2-c2ccc(C(F)(F)F)cc2)c(CC)c1)(C(=O)NCC)c1ccccc1 [Example 1-5, {3-Ethyl-4-[(4′-trifluoromethylbiphenyl-2-carbonyl)amino]phenyl}acetic acid 2,2-bisethylcarbamoyl-2-phenylethyl ester]",9.18
4,O=C(Cc1ccc(NC(=O)c2ccccc2-c2ccc(C(F)(F)F)cc2)cc1)OCC1(C(=O)NCC(F)(F)F)c2ccccc2-c2ccccc21 [Example 1-6],8.92
5,O=C(Cc1ccc(NC(=O)c2ccccc2-c2ccc(C(F)(F)F)cc2)cc1)OCC(C(=O)NCC(F)(F)F)(C(=O)NCC(F)(F)F)c1ccccc1 [Example 1-12],8.12
6,COC(=O)C(COC(=O)Cc1ccc(NC(=O)c2ccccc2-c2ccc(C(F)(F)F)cc2)cc1)(C(=O)OC)c1ccccc1 [Example 1-13],8.24
7,CCCNC(=O)C(COC(=O)Cc1ccc(NC(=O)c2ccccc2-c2ccc(C(F)(F)F)cc2)cc1)(C(=O)NCCC)c1ccccc1 [Example 1-35],9.00
8,"CCNC(=O)C(COC(=O)Cc1ccc(NC(=O)c2ccccc2-c2ccc(C(F)(F)F)cc2)c(C(=O)N(C)C)c1)(C(=O)NCC)c1ccccc1 [Example 2, {3-Dimethylcarbamoyl-4-[(4′-trifluoromethylbiphenyl-2-carbonyl)amino]phenyl}acetic acid 2,2-bisethylcarbamoyl-2-phenylethyl ester]",9.21
9,CCCNC(=O)C(COC(=O)Cc1ccc(NC(=O)c2ccccc2-c2ccc(C(F)(F)F)cc2)c(C(=O)N(C)C)c1)(C(=O)NCCC)c1ccccc1 [Example 2-2],8.85

# More lines, now with the values ahead:
row,pIC50,SMILES
1,8.68,CCNC(=O)C(COC(=O)Cc1ccc(NC(=O)c2ccccc2-c2ccc(C(F)(F)F)cc2)c(C(=O)NC)c1)(C(=O)NCC)c1ccccc1 [Example 2-3]
2,9.03,CCNC(=O)C(CCOC(=O)Cc1ccc(NC(=O)c2ccccc2-c2ccc(C(F)(F)F)cc2)c(C(=O)N(C)C)c1)(C(=O)NCC)c1ccccc1 [Example 2-4]
3,8.85,CCOC(=O)C(COC(=O)Cc1ccc(NC(=O)c2ccccc2-c2ccc(C(F)(F)F)cc2)c(C(=O)N(C)C)c1)(C(=O)OCC)c1ccccc1 [Example 2-5]
4,8.96,CCNC(=O)C(CCCOC(=O)Cc1ccc(NC(=O)c2ccccc2-c2ccc(C(F)(F)F)cc2)c(C(=O)N(C)C)c1)(C(=O)NCC)c1ccccc1 [Example 2-7]
5,8.85,CCOC(=O)C(COC(=O)Cc1ccc(NC(=O)c2ccccc2-c2ccc(C(F)(F)F)cc2)c(C(=O)N2CCCC2)c1)(C(=O)OCC)c1ccccc1 [Example 2-22]
6,9.13,COC(=O)C(COC(=O)Cc1ccc(NC(=O)c2ccccc2-c2ccc(C(F)(F)F)cc2)c(C(=O)N(C)C)c1)(C(=O)OC)c1ccccc1 [Example 2-39]
7,9.40,CCNC(=O)C(COC(=O)Cc1ccc(NC(=O)c2ccccc2-c2ccc(C(F)(F)F)cc2)c(OC)c1)(C(=O)NCC)c1ccccc1 [Example 3-3]
8,8.30,CCNC(=O)C(CCOC(=O)Cc1ccc(NC(=O)c2ccccc2-c2ccc(C(F)(F)F)cc2)c(OC)c1)(C(=O)NCC)c1ccccc1 [Example 3-6]
9,8.43,CCNC(=O)C(CCOC(=O)Cc1ccc(NC(=O)c2ccccc2-c2ccc(C(F)(F)F)cc2)c(OCC)c1)(C(=O)NCC)c1ccccc1 [Example 3-8]
10,8.57,CCNC(=O)C(COC(=O)Cc1ccc(NC(=O)c2ccccc2-c2ccc(C(F)(F)F)cc2)c(OC(C)C)c1)(C(=O)NCC)c1ccccc1 [Example 3-10]
